Columns and labels:
[1] = compound: NC(=O)CCCCC1CCSS1 [lipoamide]; test: thermal stability z-score vs DMSO; higher = more thermally stabilized by treatment; settings: HeLa, lipoamide concentration 100 µM
Protocol: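 Cellular thermal proteome profiling in HeLa cells. Cells were treated with 100 µM lipoamide for 1 h, with or without 1 mM arsenate for a further 1 h, then heated to ten temperatures (37-66.3 °C), and soluble protein was quantified by TMT mass spectrometry relative to 0.1% DMSO controls. The thermal stability score (sum of log2 fold changes minus the abundance score) was transformed to a z-score; mean of n = 3 experiments.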

[2] = compound: O=[As]([O-])(O)O.[K+] [potassium arsenate]; test: as above; settings: HeLa; arsenate concentration 1 mM
Protocol: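 Cellular thermal proteome profiling in HeLa cells treated with 1 mM arsenate for 1 h (DMSO pretreatment), heated to ten temperatures (37-66.3 °C). Soluble protein was quantified by TMT mass spectrometry relative to DMSO controls; the thermal stability score was transformed to a z-score; mean of n = 3 experiments.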

[3] = arsenate co-treatment: 1 mM arsenate 1 h
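Note: each temperature applied for 3 min, abundance score taken as mean log2 fold change at the two lowest temperatures, z-score obtained by mean subtraction and division by SD.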

UniProt P06733, sequence (P06733 whole entry): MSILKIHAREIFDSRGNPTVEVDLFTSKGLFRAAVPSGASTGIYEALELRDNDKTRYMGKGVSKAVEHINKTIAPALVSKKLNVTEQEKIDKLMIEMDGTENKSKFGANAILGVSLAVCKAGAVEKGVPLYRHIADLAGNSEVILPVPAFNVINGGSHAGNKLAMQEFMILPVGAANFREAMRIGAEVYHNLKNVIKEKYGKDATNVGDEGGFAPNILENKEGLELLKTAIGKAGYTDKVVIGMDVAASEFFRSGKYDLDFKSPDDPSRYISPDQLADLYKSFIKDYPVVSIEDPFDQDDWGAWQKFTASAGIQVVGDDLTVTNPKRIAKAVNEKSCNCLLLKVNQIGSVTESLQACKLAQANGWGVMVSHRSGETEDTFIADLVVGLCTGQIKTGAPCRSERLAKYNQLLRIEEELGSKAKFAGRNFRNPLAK
UniProt P28715, sequence (P28715 whole entry): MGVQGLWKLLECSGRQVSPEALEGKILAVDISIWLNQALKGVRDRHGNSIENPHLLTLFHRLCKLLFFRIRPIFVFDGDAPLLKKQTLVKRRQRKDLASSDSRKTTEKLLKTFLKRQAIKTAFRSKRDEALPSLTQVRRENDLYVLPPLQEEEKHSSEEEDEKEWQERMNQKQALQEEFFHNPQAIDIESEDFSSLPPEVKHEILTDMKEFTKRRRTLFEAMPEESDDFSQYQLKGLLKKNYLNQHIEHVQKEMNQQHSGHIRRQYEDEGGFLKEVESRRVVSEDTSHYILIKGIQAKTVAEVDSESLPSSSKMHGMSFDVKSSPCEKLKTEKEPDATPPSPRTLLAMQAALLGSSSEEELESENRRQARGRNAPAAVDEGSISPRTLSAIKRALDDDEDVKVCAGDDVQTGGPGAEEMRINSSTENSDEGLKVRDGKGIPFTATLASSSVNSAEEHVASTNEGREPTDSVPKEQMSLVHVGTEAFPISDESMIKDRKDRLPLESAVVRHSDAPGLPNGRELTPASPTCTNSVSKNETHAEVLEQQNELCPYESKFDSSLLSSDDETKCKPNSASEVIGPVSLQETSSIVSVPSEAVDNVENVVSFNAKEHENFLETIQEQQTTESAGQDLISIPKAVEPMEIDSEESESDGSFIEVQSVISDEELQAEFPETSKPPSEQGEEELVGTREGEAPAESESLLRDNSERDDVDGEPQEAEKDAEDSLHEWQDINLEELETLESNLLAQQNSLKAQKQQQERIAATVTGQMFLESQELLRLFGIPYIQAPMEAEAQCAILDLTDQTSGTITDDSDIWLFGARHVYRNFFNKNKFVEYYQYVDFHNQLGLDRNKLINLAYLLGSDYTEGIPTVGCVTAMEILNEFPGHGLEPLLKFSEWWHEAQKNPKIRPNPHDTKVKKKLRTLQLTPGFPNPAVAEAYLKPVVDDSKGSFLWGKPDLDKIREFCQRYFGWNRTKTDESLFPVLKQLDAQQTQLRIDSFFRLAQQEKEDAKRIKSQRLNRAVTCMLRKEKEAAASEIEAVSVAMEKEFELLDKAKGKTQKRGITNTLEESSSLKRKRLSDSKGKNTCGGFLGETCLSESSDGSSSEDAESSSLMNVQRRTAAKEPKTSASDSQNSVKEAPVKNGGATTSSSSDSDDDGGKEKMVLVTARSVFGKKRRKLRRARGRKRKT
UniProt Q92979, sequence (Q92979 whole entry, looked up): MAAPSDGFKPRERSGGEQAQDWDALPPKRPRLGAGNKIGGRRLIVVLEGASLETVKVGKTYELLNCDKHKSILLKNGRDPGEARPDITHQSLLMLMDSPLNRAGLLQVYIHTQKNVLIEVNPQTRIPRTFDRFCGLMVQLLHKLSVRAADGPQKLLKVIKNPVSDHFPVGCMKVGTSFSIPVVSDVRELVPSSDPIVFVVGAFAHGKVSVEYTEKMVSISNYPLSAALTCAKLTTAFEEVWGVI
UniProt P13929, sequence (P13929 whole entry): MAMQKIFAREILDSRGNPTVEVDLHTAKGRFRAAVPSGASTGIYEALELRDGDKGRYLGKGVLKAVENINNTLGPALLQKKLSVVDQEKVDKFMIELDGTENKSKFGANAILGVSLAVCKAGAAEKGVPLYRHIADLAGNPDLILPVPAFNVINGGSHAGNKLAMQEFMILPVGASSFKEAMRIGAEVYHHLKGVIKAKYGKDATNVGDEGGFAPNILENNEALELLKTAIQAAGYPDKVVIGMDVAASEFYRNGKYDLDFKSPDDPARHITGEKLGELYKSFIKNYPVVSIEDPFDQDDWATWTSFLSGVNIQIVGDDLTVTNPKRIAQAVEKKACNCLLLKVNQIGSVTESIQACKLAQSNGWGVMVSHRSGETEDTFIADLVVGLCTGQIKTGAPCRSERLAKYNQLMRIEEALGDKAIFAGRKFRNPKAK
UniProt Q9HC35, sequence (Q9HC35 whole entry): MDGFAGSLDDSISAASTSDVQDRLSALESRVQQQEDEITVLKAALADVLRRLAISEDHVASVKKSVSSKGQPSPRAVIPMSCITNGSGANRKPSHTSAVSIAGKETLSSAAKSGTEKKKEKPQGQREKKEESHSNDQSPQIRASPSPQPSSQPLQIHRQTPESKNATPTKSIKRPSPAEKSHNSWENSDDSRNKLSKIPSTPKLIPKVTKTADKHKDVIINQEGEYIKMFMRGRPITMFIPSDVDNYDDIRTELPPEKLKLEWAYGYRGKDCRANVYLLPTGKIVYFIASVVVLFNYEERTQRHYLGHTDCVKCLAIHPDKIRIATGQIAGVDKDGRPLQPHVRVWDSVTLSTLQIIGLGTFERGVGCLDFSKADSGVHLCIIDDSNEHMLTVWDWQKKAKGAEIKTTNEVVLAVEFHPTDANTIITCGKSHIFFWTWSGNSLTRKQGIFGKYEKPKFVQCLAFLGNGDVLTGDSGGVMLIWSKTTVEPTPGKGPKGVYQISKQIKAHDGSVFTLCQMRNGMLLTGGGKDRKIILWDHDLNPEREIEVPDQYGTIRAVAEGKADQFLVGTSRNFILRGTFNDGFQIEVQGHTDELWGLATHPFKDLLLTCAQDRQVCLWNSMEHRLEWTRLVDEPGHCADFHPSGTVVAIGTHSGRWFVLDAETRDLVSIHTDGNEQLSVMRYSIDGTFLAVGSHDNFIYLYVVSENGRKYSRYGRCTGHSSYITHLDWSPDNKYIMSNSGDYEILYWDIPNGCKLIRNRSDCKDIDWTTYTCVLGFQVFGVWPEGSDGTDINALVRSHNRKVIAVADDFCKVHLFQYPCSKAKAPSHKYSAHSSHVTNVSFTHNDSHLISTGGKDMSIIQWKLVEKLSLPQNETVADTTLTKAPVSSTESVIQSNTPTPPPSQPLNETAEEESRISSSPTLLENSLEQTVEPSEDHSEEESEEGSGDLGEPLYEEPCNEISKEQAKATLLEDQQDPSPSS
UniProt P42566, sequence (P42566 whole entry): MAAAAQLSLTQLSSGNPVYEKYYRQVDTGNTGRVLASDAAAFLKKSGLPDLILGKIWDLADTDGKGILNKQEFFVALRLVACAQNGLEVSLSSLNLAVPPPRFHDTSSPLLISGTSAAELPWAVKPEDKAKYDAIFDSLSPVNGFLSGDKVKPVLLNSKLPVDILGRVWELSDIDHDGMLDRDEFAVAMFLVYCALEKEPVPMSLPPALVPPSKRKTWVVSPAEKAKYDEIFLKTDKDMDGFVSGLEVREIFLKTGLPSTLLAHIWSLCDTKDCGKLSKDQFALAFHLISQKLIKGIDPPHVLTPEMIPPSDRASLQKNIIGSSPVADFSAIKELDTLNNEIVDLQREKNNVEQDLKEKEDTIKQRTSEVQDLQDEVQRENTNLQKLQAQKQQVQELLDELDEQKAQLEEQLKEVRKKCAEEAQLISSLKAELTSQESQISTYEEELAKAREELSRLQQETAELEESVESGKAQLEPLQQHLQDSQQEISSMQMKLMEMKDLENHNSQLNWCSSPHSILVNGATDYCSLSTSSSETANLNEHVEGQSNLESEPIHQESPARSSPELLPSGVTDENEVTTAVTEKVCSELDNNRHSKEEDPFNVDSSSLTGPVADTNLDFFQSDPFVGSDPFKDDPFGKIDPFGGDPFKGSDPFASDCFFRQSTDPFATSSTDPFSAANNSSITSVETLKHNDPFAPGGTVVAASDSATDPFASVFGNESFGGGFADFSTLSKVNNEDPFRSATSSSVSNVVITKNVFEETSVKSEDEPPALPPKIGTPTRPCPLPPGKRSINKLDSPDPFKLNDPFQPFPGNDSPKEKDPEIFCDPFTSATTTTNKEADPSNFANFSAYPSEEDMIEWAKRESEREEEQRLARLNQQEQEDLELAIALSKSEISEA
UniProt Q9Y6I3, sequence (Q9Y6I3 whole entry): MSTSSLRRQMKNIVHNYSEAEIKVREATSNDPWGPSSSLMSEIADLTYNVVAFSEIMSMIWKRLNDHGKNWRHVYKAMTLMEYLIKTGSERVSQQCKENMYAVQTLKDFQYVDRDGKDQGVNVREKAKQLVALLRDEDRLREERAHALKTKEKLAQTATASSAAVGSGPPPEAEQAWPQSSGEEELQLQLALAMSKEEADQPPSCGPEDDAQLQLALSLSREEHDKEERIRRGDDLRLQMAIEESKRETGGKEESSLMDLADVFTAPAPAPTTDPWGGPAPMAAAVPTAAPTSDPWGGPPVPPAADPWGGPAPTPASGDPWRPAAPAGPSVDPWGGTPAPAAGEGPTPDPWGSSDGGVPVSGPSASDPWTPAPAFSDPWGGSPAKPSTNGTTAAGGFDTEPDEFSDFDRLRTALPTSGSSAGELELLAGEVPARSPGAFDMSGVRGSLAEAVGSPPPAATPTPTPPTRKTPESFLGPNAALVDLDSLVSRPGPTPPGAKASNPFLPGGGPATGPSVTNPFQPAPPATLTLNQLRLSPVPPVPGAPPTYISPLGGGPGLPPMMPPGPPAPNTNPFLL
UniProt O43768, sequence (O43768 whole entry): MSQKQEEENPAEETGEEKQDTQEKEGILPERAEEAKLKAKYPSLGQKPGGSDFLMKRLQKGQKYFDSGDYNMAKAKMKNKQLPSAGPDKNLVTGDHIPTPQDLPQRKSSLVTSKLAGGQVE
UniProt Q9NPA8, sequence (Q9NPA8 whole entry): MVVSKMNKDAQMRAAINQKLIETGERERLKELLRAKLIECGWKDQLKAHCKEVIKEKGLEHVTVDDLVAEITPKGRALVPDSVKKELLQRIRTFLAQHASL

Row | Target | thermal stability z-score [1, 3] | thermal stability z-score ([1]; arsenate co-treatment: none) | thermal stability z-score [2]
1 | EMC4 (UniProt Q5J8M3) | -0.342 | 0.294 | 0.26
2 | EMC7 (UniProt Q9NPA0) | -0.402 | -0.134 | -0.101
3 | EMC8 (UniProt O43402) | 0.0729 | 0.209 | 0.348
4 | EMC10 (UniProt Q5UCC4) | -0.0818 | -0.577 | 0.0739
5 | EMD (UniProt P50402) | -0.75 | -0.633 | -0.405
6 | EMG1 (UniProt Q92979) | -0.357 | -0.428 | -0.383
7 | EML1 (UniProt O00423) | 0.345 | 0.15 | -0.156
8 | EML2 (UniProt O95834) | 1.13 | 0.223 | -0.718
9 | EML3 (UniProt Q32P44) | 0.0786 | -0.13 | -0.524
10 | EML4 (UniProt Q9HC35) | -0.51 | -0.693 | 1.33
11 | ENAH (UniProt Q8N8S7) | -0.14 | 0.013 | -0.515
12 | ENDOD1 (UniProt O94919) | -1.14 | -0.77 | 0.443
13 | ENDOG (UniProt Q14249) | -1.25 | -0.145 | -0.245
14 | ENG (UniProt P17813) | -0.721 | -0.506 | 0.478
15 | ENGASE (UniProt Q8NFI3) | 0.198 | 0.101 | -0.36
16 | ENO1 (UniProt P06733) | 0.588 | 0.278 | -0.0281
17 | ENO3 (UniProt P13929) | 0.308 | -0.4 | -0.432
18 | ENOPH1 (UniProt Q9UHY7) | 0.0377 | -0.118 | -0.296
19 | ENOSF1 (UniProt Q7L5Y1) | -0.0529 | 0.0795 | -1.01
20 | ENPEP (UniProt Q07075) | 0.281 | 0.407 | -0.0304
21 | ENSA (UniProt O43768) | 0.841 | 0.567 | 0.481
22 | ENTHD2 (UniProt Q96N21) | -0.00439 | -0.0659 | -0.479
23 | ENY2 (UniProt Q9NPA8) | 0.894 | 0.42 | 0.181
24 | EOGT (UniProt Q5NDL2) | -1.18 | -0.664 | 0.0751

Row | Target | thermal stability z-score [1, 3] | thermal stability z-score ([1]; arsenate co-treatment: none) | thermal stability z-score [2]
25 | EP300 (UniProt Q09472) | -0.212 | 0.127 | -0.866
26 | EPB41 (UniProt P11171) | -0.424 | -0.262 | -0.0292
27 | EPB41L1 (UniProt Q9H4G0) | -0.509 | -0.127 | 0.139
28 | EPB41L2 (UniProt O43491) | -0.283 | -0.0411 | 0.128
29 | EPHA2 (UniProt P29317) | -0.528 | -0.029 | -0.211
30 | EPHA5 (UniProt P54756) | 0.8 | 0.338 | 0.746
31 | EPHB4 (UniProt P54760) | -0.297 | -0.194 | 0.295
32 | EPHX1 (UniProt P07099) | 3.16 | 3.19 | 0.24
33 | EPM2AIP1 (UniProt Q7L775) | -0.0474 | 0.0432 | -0.0491
34 | EPN1 (UniProt Q9Y6I3) | 0.241 | 0.408 | 0.491
35 | EPN2 (UniProt O95208) | 1.13 | 0.804 | -0.0882
36 | EPPK1 (UniProt P58107) | -0.00734 | 0.0541 | -0.359
37 | EPRS (UniProt P07814) | -0.648 | -0.436 | 0.432
38 | EPS8L2 (UniProt Q9H6S3) | 0.124 | 0.0219 | 1.1
39 | EPS15 (UniProt P42566) | -0.339 | -0.0217 | -0.469
40 | EPS15L1 (UniProt Q9UBC2) | 0.0401 | 0.0523 | 0.4
41 | ERAL1 (UniProt O75616) | -0.329 | -0.113 | -0.45
42 | ERAP1 (UniProt Q9NZ08) | -2.65 | -2.68 | 0.97
43 | ERBB2 (UniProt P04626) | 0.166 | 0.0799 | 0.0442
44 | ERBB2IP (UniProt Q96RT1) | 0.354 | -0.307 | -1.94
45 | ERC1 (UniProt Q8IUD2) | -0.3 | -0.166 | 0.574
46 | ERCC1 (UniProt P07992) | -0.168 | 0.0263 | 0.0982
47 | ERCC2 (UniProt P18074) | 0.408 | 0.701 | 0.0533
48 | ERCC3 (UniProt P19447) | 0.0686 | 0.0573 | 0.156

Row | Target | thermal stability z-score [1, 3] | thermal stability z-score ([1]; arsenate co-treatment: none) | thermal stability z-score [2]
49 | ERCC4 (UniProt Q92889) | -0.252 | 0.00197 | -0.123
50 | ERCC5 (UniProt P28715) | 0.121 | 0.0638 | 0.401
51 | ERCC6 | 1.08 | 0.347 | -0.581
52 | ERCC6L (UniProt Q2NKX8) | -0.457 | -0.258 | 0.265
53 | ERGIC1 (UniProt Q969X5) | -1.39 | -1.4 | 0.483
54 | ERGIC2 (UniProt Q96RQ1) | -0.942 | -0.866 | -0.232
55 | ERGIC3 (UniProt Q9Y282) | -1.11 | -0.784 | -0.464
56 | ERI1 (UniProt Q8IV48) | 0.0943 | 0.343 | -1.14
57 | ERI3 (UniProt O43414) | 0.468 | 0.154 | 0.102
58 | ERLEC1 (UniProt Q96DZ1) | -2.84 | -2.07 | 0.593
59 | ERLIN1 (UniProt O75477) | -3.16 | -2.57 | -1.15
60 | ERLIN2 (UniProt O94905) | -1.05 | -0.752 | -0.0487
61 | ERMP1 (UniProt Q7Z2K6) | 0.0556 | -0.119 | 0.227
62 | ERO1A (UniProt Q96HE7) | -0.923 | 0.193 | 0.59
63 | ERP29 (UniProt P30040) | -0.51 | -0.193 | 0.32
64 | ERP44 (UniProt Q9BS26) | -2.86 | -2.35 | 0.885
65 | ESD (UniProt P10768) | -0.53 | -0.395 | 0.445
66 | ESF1 (UniProt Q9H501) | 0.105 | 0.129 | 0.24
67 | ESPL1 (UniProt Q14674) | 0.424 | -0.509 | 1.94
68 | ESRP2 (UniProt Q9H6T0) | -0.121 | 0.00175 | 0.0815
69 | ESYT1 (UniProt Q9BSJ8) | -0.86 | -0.642 | 0.595
70 | ESYT2 (UniProt A0FGR8) | -0.934 | -0.479 | -0.306
71 | ETF1 (UniProt P62495) | 0.635 | 0.513 | -0.148
72 | ETFA (UniProt P13804) | -0.622 | 0.0342 | -1.17
